Assays:
Type in all cases: binding
panel of 442 kinases [1] = target: T1, panel of 442 kinases (Homo sapiens, UniProt P49336); conditions: Compound Concentration 10 µM
T1 construct: purchased KINOMEscan
Text: (§1) We assessed the selectivity of members of this scaffold using the KINOMEscan methodology across a near comprehensive panel of 442 kinases [[18,27]].

panel of 442 kinases [2] = target: T2, panel of 442 kinases (Homo sapiens, UniProt Q14680); conditions: Compound Concentration 10 µM
T2 construct: purchased KINOMEscan
Text: as §1

panel of 442 kinases [3] = target: T3, panel of 442 kinases (Homo sapiens, UniProt Q9H093); conditions: kinase SNARK; compound concentration 10 µM
T3 construct: purchased KINOMEscan
T3 sequence (Q9H093 1-628): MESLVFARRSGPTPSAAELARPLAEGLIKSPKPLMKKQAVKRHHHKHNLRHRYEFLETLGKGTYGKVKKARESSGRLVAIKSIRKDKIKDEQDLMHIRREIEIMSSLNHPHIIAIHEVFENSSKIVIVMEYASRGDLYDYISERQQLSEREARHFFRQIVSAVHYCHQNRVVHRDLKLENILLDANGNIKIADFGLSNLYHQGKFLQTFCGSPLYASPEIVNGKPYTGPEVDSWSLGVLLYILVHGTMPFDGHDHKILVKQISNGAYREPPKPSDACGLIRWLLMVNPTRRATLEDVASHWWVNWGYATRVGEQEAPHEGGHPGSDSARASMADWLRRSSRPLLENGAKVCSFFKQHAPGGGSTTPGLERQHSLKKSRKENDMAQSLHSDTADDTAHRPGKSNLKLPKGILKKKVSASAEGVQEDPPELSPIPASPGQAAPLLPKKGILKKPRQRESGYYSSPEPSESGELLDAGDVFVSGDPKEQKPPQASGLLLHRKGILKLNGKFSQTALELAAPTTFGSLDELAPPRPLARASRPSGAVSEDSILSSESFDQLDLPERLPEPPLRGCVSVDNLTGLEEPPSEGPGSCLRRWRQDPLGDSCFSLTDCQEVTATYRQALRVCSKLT
Text: as §1

T1 sequence (P49336 whole entry): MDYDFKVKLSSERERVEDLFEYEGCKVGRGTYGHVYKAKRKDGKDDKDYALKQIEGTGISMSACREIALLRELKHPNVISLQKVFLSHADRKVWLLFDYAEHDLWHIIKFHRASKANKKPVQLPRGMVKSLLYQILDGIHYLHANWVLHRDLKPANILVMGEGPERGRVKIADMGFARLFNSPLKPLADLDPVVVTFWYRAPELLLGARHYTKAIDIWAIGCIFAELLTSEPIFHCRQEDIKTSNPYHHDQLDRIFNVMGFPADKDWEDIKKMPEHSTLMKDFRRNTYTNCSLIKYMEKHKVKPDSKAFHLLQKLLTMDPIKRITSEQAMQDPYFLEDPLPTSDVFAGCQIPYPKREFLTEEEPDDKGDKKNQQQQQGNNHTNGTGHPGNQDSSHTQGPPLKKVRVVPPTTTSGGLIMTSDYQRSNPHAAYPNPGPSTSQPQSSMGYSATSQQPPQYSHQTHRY
T2 sequence (Q14680 whole entry): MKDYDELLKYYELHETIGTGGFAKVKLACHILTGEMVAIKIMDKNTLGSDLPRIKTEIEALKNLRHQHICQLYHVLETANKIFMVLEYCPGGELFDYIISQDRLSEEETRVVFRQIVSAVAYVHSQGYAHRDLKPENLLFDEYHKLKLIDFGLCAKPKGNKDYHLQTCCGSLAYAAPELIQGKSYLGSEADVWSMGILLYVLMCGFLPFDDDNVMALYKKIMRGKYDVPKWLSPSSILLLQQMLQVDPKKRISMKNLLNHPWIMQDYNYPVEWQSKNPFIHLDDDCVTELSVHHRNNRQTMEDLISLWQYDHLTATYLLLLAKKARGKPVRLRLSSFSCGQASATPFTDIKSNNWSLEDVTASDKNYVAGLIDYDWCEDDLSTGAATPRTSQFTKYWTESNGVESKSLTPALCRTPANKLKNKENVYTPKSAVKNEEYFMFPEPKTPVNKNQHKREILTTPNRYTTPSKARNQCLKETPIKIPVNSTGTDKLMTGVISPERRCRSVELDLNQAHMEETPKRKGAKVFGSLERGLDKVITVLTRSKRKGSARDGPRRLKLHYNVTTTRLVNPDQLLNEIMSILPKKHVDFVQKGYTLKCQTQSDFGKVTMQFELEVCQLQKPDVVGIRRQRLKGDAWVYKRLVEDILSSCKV

Row | SMILES | KINOMEscan: CDK8 (panel of 442 kinases [1]) | KINOMEscan: MELK (panel of 442 kinases [2]) | % Ctrl, SNARK (panel of 442 kinases [3])
1 | COc1cc(C(=O)N2CCC(N3CCN(C)CC3)CC2)ccc1Nc1ncc2c(n1)N(C1CCCC1)c1ccccc1C(=O)N2C [Compound 25, 11-cyclopentyl-2-((2-methoxy-4-(4-(4-methylpiperazin-1-yl)piperidine-1-carbonyl)phenyl)amino)-5-methyl-5H-benzo[e]pyrimido[5,4-b][1,4]diazepin-6(11H)-one] | 100 | 100 | 100 % Ctrl
2 | COc1cc(C(=O)N2CCC(N3CCN(C)CC3)CC2)ccc1Nc1ncc2c(n1)N1CCc3cccc(c31)C(=O)N2C [Compound 24] | 91 | 62 | 74 % Ctrl
3 | COc1cc(C(=O)N2CCC(N3CCN(C)CC3)CC2)ccc1Nc1ncc2c(n1)N(C)c1ccccc1C(=O)N2C [15 (LRRK2-IN-1)] | 100 | 100 | 47 % Ctrl
4 | CCOc1cc(C(=O)N2CCC(N3CCN(C)CC3)CC2)ccc1Nc1ncc2c(n1)N(C1CCCC1)c1ccccc1C(=O)N2C [Compound 26] | 95 | 100 | 96 % Ctrl

Source: article PMC3914206
